Reference: ChEMBL document CHEMBL5728961, “Compounds useful for treating gastrointestinal tract disorders” (2022)

Assays:
[1] = target: T1, Sodium/hydrogen exchanger 3 (Homo sapiens, UniProt P48764); assay: Cell-Based Assay of NHE-3 Activity (Pre-Incubation Inhibition): Rat and human NHE-3-mediated Na+-dependent H+ antiport was measured using a modification of the pH sensitive dye method originally reported by Paradiso (Proc. Natl. Acad. Sci. USA. (1984) 81(23): 7436-7440). PS120 fibroblasts stably expressing human NHE3 and NHERF2 were obtained from Mark Donowitz (Baltimore, Md.). Opossum kidney (OK) cells were obtained from the ATCC and propagated per their instructions. The rat NHE-3 gene (GenBank M85300) was introduced into OK cells via electroporation, and cells were seeded into 96 well plates and grown overnight. Medium was aspirated from the wells then incubated for 30 min at 37° C. with NH4Cl-HEPES buffer (20 mM NH4Cl, 80 mM NaCl, 50 mM HEPES, 5 mM KCl, 2 mM CaCl2, 1 mM MgCl2, pH 7.4) containing 5 μM BCECF-AM. Cells were washed once with Ammonium free, Na+-free HEPES (100 mM choline, 50 mM HEPES, 10 mM glucose, 5 mM KCl, 2 mM CaCl2, 1 mM MgCl2, pH 7.4) and incubated in the same buffer for 10 minutes at room temperature to lower intracellular pH with 0-30 μM test compound. […] Changes in intracellular pH were monitored using a FLIPR Tetra® (Molecular Devices, Sunnyvale, Calif.) by excitation at λex 439 to 505 nm, and measuring BCECF fluorescence at λem 538 nm. The initial rate of the fluorescence ratio change was used as a measure of NHE-mediated Na+/H+ activity, and reported as the change in fluorescence ratio per minute.
T1 sequence (P48764 whole entry): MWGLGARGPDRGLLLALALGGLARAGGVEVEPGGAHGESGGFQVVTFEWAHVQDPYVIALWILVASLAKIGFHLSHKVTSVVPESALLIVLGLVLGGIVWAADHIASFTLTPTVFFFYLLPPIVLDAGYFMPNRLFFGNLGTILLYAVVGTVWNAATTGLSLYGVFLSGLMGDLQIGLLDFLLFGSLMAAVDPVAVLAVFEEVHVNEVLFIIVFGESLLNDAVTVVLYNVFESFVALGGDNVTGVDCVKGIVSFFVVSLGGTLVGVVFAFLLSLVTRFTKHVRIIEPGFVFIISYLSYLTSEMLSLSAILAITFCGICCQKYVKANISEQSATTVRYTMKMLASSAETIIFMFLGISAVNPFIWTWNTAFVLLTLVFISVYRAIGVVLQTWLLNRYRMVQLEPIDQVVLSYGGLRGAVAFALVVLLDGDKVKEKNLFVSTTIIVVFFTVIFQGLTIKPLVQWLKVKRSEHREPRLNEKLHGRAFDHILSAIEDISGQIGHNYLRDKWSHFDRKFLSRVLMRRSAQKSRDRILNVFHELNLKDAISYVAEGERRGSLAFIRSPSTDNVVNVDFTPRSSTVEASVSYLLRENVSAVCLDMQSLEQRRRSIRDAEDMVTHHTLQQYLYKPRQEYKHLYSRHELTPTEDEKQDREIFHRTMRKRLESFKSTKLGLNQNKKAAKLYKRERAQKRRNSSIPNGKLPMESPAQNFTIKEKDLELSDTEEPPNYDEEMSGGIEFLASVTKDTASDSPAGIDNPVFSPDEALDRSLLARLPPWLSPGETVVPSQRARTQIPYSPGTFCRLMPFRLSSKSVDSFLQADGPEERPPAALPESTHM

[2] = target: T1, Sodium/hydrogen exchanger 3; assay: Cell-Based Assay of NHE-3 Activity (Persistent Inhibition): The ability of compounds to inhibit human and rat NHE-3-mediated Na+ dependent H+ antiport after application and washout was measured using a modification of the pH sensitive dye method described above. PS120 fibroblasts stably expressing human NHE3 and NHERF2 were obtained from Mark Donowitz (Baltimore, Md.). Opossum kidney (OK) cells were obtained from the ATCC and propagated per their instructions. The rat NHE-3 gene was introduced into OK cells via electroporation, and cells were seeded into 96 well plates and grown overnight. Medium was aspirated from the wells, cells were washed once with NaCl-HEPES buffer (100 mM NaCl, 50 mM HEPES, 10 mM glucose, 5 mM KCl, 2 mM CaCl2, 1 mM MgCl2, pH 7.4), then overlayed with NaCl-HEPES buffer containing 0-30 μM test compound. After a 60 min incubation at room temperature, the test drug containing buffer was aspirated from the cells. Following aspiration, cells were washed once with NaCl-HEPES buffer without drug, then incubated for 30 min at 37° C. with NH4Cl-HEPES buffer (20 mM NH4Cl, 80 mM NaCl, 50 mM HEPES, 5 mM KCl, 2 mM CaCl2, 1 mM MgCl2, pH 7.4) containing 5 μM BCECF-AM. Cells were washed once with Ammonium free, Na+-free HEPES (100 mM choline, 50 mM HEPES, 10 mM glucose, 5 mM KCl, 2 mM CaCl2, 1 mM MgCl2, pH 7.4) and incubated in the same buffer for 10 minutes at room temperature to lower intracellular pH. NHE-3-mediated recovery of neutral intracellular pH was initiated ([…]) by addition of Na-HEPES buffer. […] Changes in intracellular pH were monitored using a FLIPR Tetra® (Molecular Devices, Sunnyvale, Calif.) by excitation at λex 439 to 505 nm, and measuring BCECF fluorescence at λem 538 nm. The initial rate of the fluorescence ratio change was used as a measure of NHE-mediated Na+/H+ activity, and reported as the change in fluorescence ratio per minute.

| SMILES | IC50 [1] | IC50 [2] |
| --- | --- | --- |
| Cc1cc(S(=O)(=O)NCCCCCCCCNC(=O)NCCCCNC(=O)NCCCCCCCCNS(=O)(=O)c2ccc(O[C@H]3c4cc(Cl)cc(Cl)c4C[C@@H]3N(C)C)c(C)c2)ccc1O[C@H]1c2cc(Cl)cc(Cl)c2C[C@@H]1N(C)C | > 1000 nM | > 1000 nM |
| CN(C)[C@H]1Cc2c(OC(F)(F)F)cc(Cl)cc2[C@@H]1Oc1ccc(S(=O)(=O)NCCOCCOCCNC(=O)NCCCCNC(=O)NCCOCCOCCNS(=O)(=O)c2ccc(O[C@H]3c4cc(Cl)cc(OC(F)(F)F)c4C[C@@H]3N(C)C)cc2)cc1 | > 1000 nM | > 1000 nM |
| CN(C)[C@H]1Cc2c(Cl)cc(Cl)cc2[C@@H]1Oc1ccc(S(=O)(=O)NCCCCCCCCNC(=O)NCCCCNC(=O)NCCCCCCCCNS(=O)(=O)c2ccc(O[C@H]3c4cc(Cl)cc(Cl)c4C[C@@H]3N(C)C)cc2)cc1 | > 1000 nM | > 1000 nM |
| COc1cc(Cl)cc2c1C[C@H](N1CCC[C@@H](N)C1)[C@H]2Oc1ccc(S(=O)(=O)NCCOCCOCCNC(=O)NCCCCNC(=O)NCCOCCOCCNS(=O)(=O)c2ccc(O[C@H]3c4cc(Cl)cc(OC)c4C[C@@H]3N3CCC[C@@H](N)C3)cc2)cc1 | < 100 nM | < 100 nM |
| O=C(NCCCCNC(=O)NCCOCCOCCNS(=O)(=O)c1ccc(O[C@H]2c3cc(Cl)cc(Cl)c3C[C@@H]2N2C3CCCC2CC3)cc1)NCCOCCOCCNS(=O)(=O)c1ccc(O[C@H]2c3cc(Cl)cc(Cl)c3C[C@@H]2N2C3CCCC2CC3)cc1 | < 100 nM | < 100 nM |
| N#Cc1cc(Cl)cc2c1C[C@H](N1CCC[C@@H](N)C1)[C@H]2Oc1ccc(S(=O)(=O)NCCOCCOCCNC(=O)NCCCCNC(=O)NCCOCCOCCNS(=O)(=O)c2ccc(O[C@H]3c4cc(Cl)cc(C#N)c4C[C@@H]3N3CCC[C@@H](N)C3)cc2)cc1 | < 100 nM | < 100 nM |
| Cc1cc(S(=O)(=O)N[C@@H]2CCN(CCOCCNC(=O)NCCCCNC(=O)NCCOCCN3CC[C@@H](NS(=O)(=O)c4ccc(O[C@H]5c6cc(Cl)cc(C#N)c6C[C@@H]5N(C)C)c(C)c4)C3)C2)ccc1O[C@H]1c2cc(Cl)cc(C#N)c2C[C@@H]1N(C)C | < 100 nM | < 100 nM |
| CN(C)[C@H]1Cc2c(cc(Cl)cc2C(F)(F)F)[C@@H]1Oc1ccc(S(=O)(=O)NCCOCCOCCNC(=O)NCCCCNC(=O)NCCOCCOCCNS(=O)(=O)c2ccc(O[C@H]3c4cc(Cl)cc(C(F)(F)F)c4C[C@@H]3N(C)C)cc2)cc1 | > 1000 nM | > 1000 nM |
| Cc1cc(Cl)cc2c1C[C@H](N1CCNCC1)[C@H]2Oc1ccc(S(=O)(=O)NCCOCCOCCNC(=O)NCCCCNC(=O)NCCOCCOCCNS(=O)(=O)c2ccc(O[C@H]3c4cc(Cl)cc(C)c4C[C@@H]3N3CCNCC3)cc2)cc1 | < 100 nM | < 100 nM |
| N[C@@H]1CCCN([C@H]2Cc3c(Cl)cc(Cl)cc3[C@@H]2Oc2ccc(S(=O)(=O)NCCCCCCn3cc(CNC(=O)NCCCCNC(=O)NCc4cn(CCCCCCNS(=O)(=O)c5ccc(O[C@H]6c7cc(Cl)cc(Cl)c7C[C@@H]6N6CCC[C@@H](N)C6)cc5)nn4)nn3)cc2)C1 | < 100 nM | < 100 nM |
| Cc1cc(S(=O)(=O)N2CC[C@@H](COCCOCCNC(=O)NCCCCNC(=O)NCCOCCOC[C@@H]3CCN(S(=O)(=O)c4ccc(O[C@H]5c6cc(Cl)cc(C#N)c6C[C@@H]5N(C)C)c(C)c4)C3)C2)ccc1O[C@H]1c2cc(Cl)cc(C#N)c2C[C@@H]1N(C)C | < 100 nM | < 100 nM |
| O=C(NCCCCNC(=O)NCCOCCN1CC[C@H](NS(=O)(=O)c2ccc(O[C@H]3c4cc(Cl)cc(Cl)c4C[C@@H]3N3CCNCC3)c(F)c2)C1)NCCOCCN1CC[C@H](NS(=O)(=O)c2ccc(O[C@H]3c4cc(Cl)cc(Cl)c4C[C@@H]3N3CCNCC3)c(F)c2)C1 | < 100 nM | < 100 nM |

More lines, now with the values ahead:

| IC50 [1] | IC50 [2] | SMILES |
| --- | --- | --- |
| < 100 nM | < 100 nM | Cc1cc(Cl)cc2c1C[C@H](N1CCC[C@@H](N)C1)[C@H]2Oc1ccc(S(=O)(=O)NCCOCCOCCNC(=O)NCCCCNC(=O)NCCOCCOCCNS(=O)(=O)c2ccc(O[C@H]3c4cc(Cl)cc(C)c4C[C@@H]3N3CCC[C@@H](N)C3)cc2)cc1 |
| < 100 nM | < 100 nM | Cc1cc(O[C@H]2c3cc(Cl)cc(Cl)c3C[C@@H]2N2CCC[C@@H](N)C2)c(F)cc1S(=O)(=O)NCCOCCOCCNC(=O)NCCCCNC(=O)NCCOCCOCCNS(=O)(=O)c1cc(F)c(O[C@H]2c3cc(Cl)cc(Cl)c3C[C@@H]2N2CCC[C@@H](N)C2)cc1C |
| < 100 nM | < 100 nM | Cc1cc(Cl)cc2c1C[C@H](N1CCC[C@@H](N)C1)[C@H]2Oc1ccc(S(=O)(=O)NCCOCCOCCNC(=O)NCCCCNC(=O)NCCOCCOCCNS(=O)(=O)c2ccc(O[C@H]3c4cc(Cl)cc(C)c4C[C@@H]3N3CCC[C@@H](N)C3)c(F)c2)cc1F |
| < 100 nM | < 100 nM | Cc1cc(S(=O)(=O)NCCOCCOCCNC(=O)NCCCCNC(=O)NCCOCCOCCNS(=O)(=O)c2cc(C)c(O[C@H]3c4cc(Cl)cc(Cl)c4C[C@@H]3N3CCC[C@@H](N)C3)cc2F)c(F)cc1O[C@H]1c2cc(Cl)cc(Cl)c2C[C@@H]1N1CCC[C@@H](N)C1 |
| < 100 nM | < 100 nM | Cc1cc(Cl)cc2c1C[C@H](N(C)C)[C@H]2Oc1ccc(S(=O)(=O)NCCOCCOCCNC(=O)NCCCCNC(=O)NCCOCCOCCNS(=O)(=O)c2ccc(O[C@H]3c4cc(Cl)cc(C)c4C[C@@H]3N(C)C)c(F)c2)cc1F |
| < 100 nM | < 100 nM | N[C@@H]1CCCN([C@H]2Cc3c(Cl)cc(Cl)cc3[C@@H]2Oc2ccc(S(=O)(=O)NCCOCCOCCNC(=O)NCCCCNC(=O)NCCOCCOCCNS(=O)(=O)c3ccc(O[C@H]4c5cc(Cl)cc(Cl)c5C[C@@H]4N4CCC[C@@H](N)C4)c(F)c3)cc2F)C1 |
| < 100 nM | < 100 nM | N[C@@H]1CCCN([C@H]2Cc3c(Cl)cc(Cl)cc3[C@@H]2Oc2c(F)cc(S(=O)(=O)NCCOCCOCCNC(=O)NCCCCNC(=O)NCCOCCOCCNS(=O)(=O)c3cc(F)c(O[C@H]4c5cc(Cl)cc(Cl)c5C[C@@H]4N4CCC[C@@H](N)C4)c(F)c3)cc2F)C1 |
| < 100 nM | < 100 nM | Cc1cc(S(=O)(=O)NCCOCCOCCNC(=O)NCCCCNC(=O)NCCOCCOCCNS(=O)(=O)c2ccc(O[C@H]3c4cc(Cl)cc(C)c4C[C@@H]3N3CCC[C@@H](N)C3)c(C)c2)ccc1O[C@H]1c2cc(Cl)cc(C)c2C[C@@H]1N1CCC[C@@H](N)C1 |
| > 1000 nM | > 1000 nM | Cc1cc(S(=O)(=O)NCCOCCOCCNC(=O)NCCCCNC(=O)NCCOCCOCCNS(=O)(=O)c2ccc(O[C@H]3c4cc(Cl)cc(C#N)c4C[C@@H]3N3CCC[C@@H](N)C3)c(C)c2)ccc1O[C@H]1c2cc(Cl)cc(C#N)c2C[C@@H]1N1CCC[C@@H](N)C1 |
| < 100 nM | < 100 nM | Cc1cc(S(=O)(=O)NCCOCCOCCNC(=O)NCCCCNC(=O)NCCOCCOCCNS(=O)(=O)c2ccc(O[C@H]3c4cc(Cl)cc(Cl)c4C[C@@H]3N3CCC[C@@H](N(C)C)C3)c(C)c2)ccc1O[C@H]1c2cc(Cl)cc(Cl)c2C[C@@H]1N1CCC[C@@H](N(C)C)C1 |
| > 1000 nM | > 1000 nM | CN(C)[C@@H]1CCCN([C@H]2Cc3c(C#N)cc(Cl)cc3[C@@H]2Oc2ccc(S(=O)(=O)NCCOCCOCCNC(=O)NCCCCNC(=O)NCCOCCOCCNS(=O)(=O)c3ccc(O[C@H]4c5cc(Cl)cc(C#N)c5C[C@@H]4N4CCC[C@@H](N(C)C)C4)c(F)c3)cc2F)C1 |
| < 100 nM | < 100 nM | CN(C)[C@@H]1CCCN([C@H]2Cc3c(Cl)cc(Cl)cc3[C@@H]2Oc2ccc(S(=O)(=O)NCCOCCOCCNC(=O)NCCCCNC(=O)NCCOCCOCCNS(=O)(=O)c3ccc(O[C@H]4c5cc(Cl)cc(Cl)c5C[C@@H]4N4CCC[C@@H](N(C)C)C4)c(F)c3)cc2F)C1 |
